According to the supplement of paper PMC8671470:

tested on: HEL; assay: cell viability (% survival relative to DMSO control, bortezomib = 0%); higher = less cytotoxic; details: 1 nM; 72 h
Summary of the method: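 Fifteen myeloid leukaemia cell lines were exposed to compounds at 1, 10, 100, 1000 or 10000 nM in 384-well plates for 72 h at 37 °C and 5% CO2. Viability was read by CellTiter-Glo luminescence and normalised, with vehicle as 100% and a 10 µM positive control as 0%. Values are percent survival averaged over duplicates.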

Structure (SMILES)	cell viability [%]
Cn1cc(C[C@@H](N)C(=O)O)c2ccccc21 [Indoximod]	110
O=C(Oc1ccc([N+](=O)[O-])cc1)N1CCC(C(O)(c2ccc3c(c2)OCO3)c2ccc3c(c2)OCO3)CC1 [JZL184]	97.3
O=C1N[C@@H]2[C@@H](O)[C@@H](O)[C@H](O)[C@@H](CO)N2C1=O [Kifunensine]	99.6
CC(C)(CCCCCCCCCCC(C)(C)CC(=O)O)CC(=O)O [MEDICA 16]	116
CC(C)c1ccc2c(c1)c(SC(C)(C)C)c(CC(C)(C)C(=O)O)n2Cc1ccc(Cl)cc1 [MK-886]	110
O=C(CCl)N(CCCNC(=O)C(F)(F)F)c1ccc([N+](=O)[O-])cc1 [ML175]	105
CN(C)C(=N)NC(=N)N [Metformin]	110
Cl.OC[C@H]1NC[C@H](O)[C@@H](O)[C@H]1O [Migalastat]	99.2
OCCN1C[C@H](O)[C@@H](O)[C@H](O)[C@H]1CO [Miglitol]	107
CCCCCCCNC=O [N-Heptyl-Formamide]	109
CC(C)(F)C[C@H](N[C@@H](c1ccc(-c2ccc(S(C)(=O)=O)cc2)cc1)C(F)(F)F)C(=O)NC1(C#N)CC1 [Odanacatib]	104
CNC(=C[N+](=O)[O-])NCCSCc1ccc(CN(C)C)o1 [Ranitidine]	113
C#CCN[C@@H]1CCc2ccccc21 [Rasagiline]	118
NC(CCC(=O)NC(CSCc1ccc(Br)cc1)C(=O)NCC(=O)OC1CCCC1)C(=O)OC1CCCC1 (stereo not given) [S-para-Bromobenzylglutathione cyclopentyl diester]	114
COc1cc(C2Oc3cc(C4Oc5cc(O)cc(O)c5C(=O)C4O)ccc3OC2CO)ccc1O (stereo not given) [Silibinin]	101
Cn1c2cc(S(C)=O)sc2c2cnn(Cc3cccc(N)c3)c(=O)c21 (stereo not given) [TEPP-46]	118
CCCCCCCCCCCCCCOc1ccc(C(=O)O)o1 [TOFA]	108
CN1CC(=O)N2[C@H](c3ccc4c(c3)OCO4)c3[nH]c4ccccc4c3C[C@@H]2C1=O [Tadalafil]	103
Cl.NC1=CCCN1Cc1nc(O)nc(O)c1Cl [Tipiracil]	122
CCCC(CCC)C(=O)O [Valproic acid]	119
OCC(CO)N[C@H]1C[C@](O)(CO)[C@@H](O)[C@H](O)[C@H]1O [Voglibose]	124

same assay, conditions: 10 nM; 72 h

Structure (SMILES)	cell viability [%]
Cn1cc(C[C@@H](N)C(=O)O)c2ccccc21 [Indoximod]	97.1
O=C(Oc1ccc([N+](=O)[O-])cc1)N1CCC(C(O)(c2ccc3c(c2)OCO3)c2ccc3c(c2)OCO3)CC1 [JZL184]	114
O=C1N[C@@H]2[C@@H](O)[C@@H](O)[C@H](O)[C@@H](CO)N2C1=O [Kifunensine]	105
CC(C)(CCCCCCCCCCC(C)(C)CC(=O)O)CC(=O)O [MEDICA 16]	108
CC(C)c1ccc2c(c1)c(SC(C)(C)C)c(CC(C)(C)C(=O)O)n2Cc1ccc(Cl)cc1 [MK-886]	112
O=C(CCl)N(CCCNC(=O)C(F)(F)F)c1ccc([N+](=O)[O-])cc1 [ML175]	106
CN(C)C(=N)NC(=N)N [Metformin]	94.3
Cl.OC[C@H]1NC[C@H](O)[C@@H](O)[C@H]1O [Migalastat]	99.3
OCCN1C[C@H](O)[C@@H](O)[C@H](O)[C@H]1CO [Miglitol]	101
CCCCCCCNC=O [N-Heptyl-Formamide]	97.9
CC(C)(F)C[C@H](N[C@@H](c1ccc(-c2ccc(S(C)(=O)=O)cc2)cc1)C(F)(F)F)C(=O)NC1(C#N)CC1 [Odanacatib]	107
CNC(=C[N+](=O)[O-])NCCSCc1ccc(CN(C)C)o1 [Ranitidine]	104
C#CCN[C@@H]1CCc2ccccc21 [Rasagiline]	115
NC(CCC(=O)NC(CSCc1ccc(Br)cc1)C(=O)NCC(=O)OC1CCCC1)C(=O)OC1CCCC1 (stereo not given) [S-para-Bromobenzylglutathione cyclopentyl diester]	88.2
COc1cc(C2Oc3cc(C4Oc5cc(O)cc(O)c5C(=O)C4O)ccc3OC2CO)ccc1O (stereo not given) [Silibinin]	100
Cn1c2cc(S(C)=O)sc2c2cnn(Cc3cccc(N)c3)c(=O)c21 (stereo not given) [TEPP-46]	96.2
CCCCCCCCCCCCCCOc1ccc(C(=O)O)o1 [TOFA]	91.8
CN1CC(=O)N2[C@H](c3ccc4c(c3)OCO4)c3[nH]c4ccccc4c3C[C@@H]2C1=O [Tadalafil]	77.5
Cl.NC1=CCCN1Cc1nc(O)nc(O)c1Cl [Tipiracil]	102
CCCC(CCC)C(=O)O [Valproic acid]	103
OCC(CO)N[C@H]1C[C@](O)(CO)[C@@H](O)[C@H](O)[C@H]1O [Voglibose]	107

same assay, conditions: 100 nM; 72 h

Structure (SMILES)	cell viability [%]
Cn1cc(C[C@@H](N)C(=O)O)c2ccccc21 [Indoximod]	85.8
O=C(Oc1ccc([N+](=O)[O-])cc1)N1CCC(C(O)(c2ccc3c(c2)OCO3)c2ccc3c(c2)OCO3)CC1 [JZL184]	120
O=C1N[C@@H]2[C@@H](O)[C@@H](O)[C@H](O)[C@@H](CO)N2C1=O [Kifunensine]	125
CC(C)(CCCCCCCCCCC(C)(C)CC(=O)O)CC(=O)O [MEDICA 16]	95.2
CC(C)c1ccc2c(c1)c(SC(C)(C)C)c(CC(C)(C)C(=O)O)n2Cc1ccc(Cl)cc1 [MK-886]	99.2
O=C(CCl)N(CCCNC(=O)C(F)(F)F)c1ccc([N+](=O)[O-])cc1 [ML175]	96.3
CN(C)C(=N)NC(=N)N [Metformin]	107
Cl.OC[C@H]1NC[C@H](O)[C@@H](O)[C@H]1O [Migalastat]	101
OCCN1C[C@H](O)[C@@H](O)[C@H](O)[C@H]1CO [Miglitol]	86.5
CCCCCCCNC=O [N-Heptyl-Formamide]	80.9
CC(C)(F)C[C@H](N[C@@H](c1ccc(-c2ccc(S(C)(=O)=O)cc2)cc1)C(F)(F)F)C(=O)NC1(C#N)CC1 [Odanacatib]	99.9
CNC(=C[N+](=O)[O-])NCCSCc1ccc(CN(C)C)o1 [Ranitidine]	107
C#CCN[C@@H]1CCc2ccccc21 [Rasagiline]	117
NC(CCC(=O)NC(CSCc1ccc(Br)cc1)C(=O)NCC(=O)OC1CCCC1)C(=O)OC1CCCC1 (stereo not given) [S-para-Bromobenzylglutathione cyclopentyl diester]	113
COc1cc(C2Oc3cc(C4Oc5cc(O)cc(O)c5C(=O)C4O)ccc3OC2CO)ccc1O (stereo not given) [Silibinin]	115
Cn1c2cc(S(C)=O)sc2c2cnn(Cc3cccc(N)c3)c(=O)c21 (stereo not given) [TEPP-46]	100
CCCCCCCCCCCCCCOc1ccc(C(=O)O)o1 [TOFA]	103
CN1CC(=O)N2[C@H](c3ccc4c(c3)OCO4)c3[nH]c4ccccc4c3C[C@@H]2C1=O [Tadalafil]	93.1
Cl.NC1=CCCN1Cc1nc(O)nc(O)c1Cl [Tipiracil]	112
CCCC(CCC)C(=O)O [Valproic acid]	94.5
OCC(CO)N[C@H]1C[C@](O)(CO)[C@@H](O)[C@H](O)[C@H]1O [Voglibose]	97.3

same assay, conditions: 1000 nM; 72 h

Structure (SMILES)	cell viability [%]
Cn1cc(C[C@@H](N)C(=O)O)c2ccccc21 [Indoximod]	120
O=C(Oc1ccc([N+](=O)[O-])cc1)N1CCC(C(O)(c2ccc3c(c2)OCO3)c2ccc3c(c2)OCO3)CC1 [JZL184]	90.6
O=C1N[C@@H]2[C@@H](O)[C@@H](O)[C@H](O)[C@@H](CO)N2C1=O [Kifunensine]	87.8
CC(C)(CCCCCCCCCCC(C)(C)CC(=O)O)CC(=O)O [MEDICA 16]	110
CC(C)c1ccc2c(c1)c(SC(C)(C)C)c(CC(C)(C)C(=O)O)n2Cc1ccc(Cl)cc1 [MK-886]	95.3
O=C(CCl)N(CCCNC(=O)C(F)(F)F)c1ccc([N+](=O)[O-])cc1 [ML175]	-0.0497
CN(C)C(=N)NC(=N)N [Metformin]	102
Cl.OC[C@H]1NC[C@H](O)[C@@H](O)[C@H]1O [Migalastat]	104
OCCN1C[C@H](O)[C@@H](O)[C@H](O)[C@H]1CO [Miglitol]	96.7
CCCCCCCNC=O [N-Heptyl-Formamide]	112
CC(C)(F)C[C@H](N[C@@H](c1ccc(-c2ccc(S(C)(=O)=O)cc2)cc1)C(F)(F)F)C(=O)NC1(C#N)CC1 [Odanacatib]	92.7
CNC(=C[N+](=O)[O-])NCCSCc1ccc(CN(C)C)o1 [Ranitidine]	104
C#CCN[C@@H]1CCc2ccccc21 [Rasagiline]	90.1
NC(CCC(=O)NC(CSCc1ccc(Br)cc1)C(=O)NCC(=O)OC1CCCC1)C(=O)OC1CCCC1 (stereo not given) [S-para-Bromobenzylglutathione cyclopentyl diester]	102
COc1cc(C2Oc3cc(C4Oc5cc(O)cc(O)c5C(=O)C4O)ccc3OC2CO)ccc1O (stereo not given) [Silibinin]	89.2
Cn1c2cc(S(C)=O)sc2c2cnn(Cc3cccc(N)c3)c(=O)c21 (stereo not given) [TEPP-46]	99.1
CCCCCCCCCCCCCCOc1ccc(C(=O)O)o1 [TOFA]	103
CN1CC(=O)N2[C@H](c3ccc4c(c3)OCO4)c3[nH]c4ccccc4c3C[C@@H]2C1=O [Tadalafil]	98
Cl.NC1=CCCN1Cc1nc(O)nc(O)c1Cl [Tipiracil]	111
CCCC(CCC)C(=O)O [Valproic acid]	108
OCC(CO)N[C@H]1C[C@](O)(CO)[C@@H](O)[C@H](O)[C@H]1O [Voglibose]	99.1

same assay, conditions: 10000 nM; 72 h

Structure (SMILES)	cell viability [%]
Cn1cc(C[C@@H](N)C(=O)O)c2ccccc21 [Indoximod]	100
O=C(Oc1ccc([N+](=O)[O-])cc1)N1CCC(C(O)(c2ccc3c(c2)OCO3)c2ccc3c(c2)OCO3)CC1 [JZL184]	97.4
O=C1N[C@@H]2[C@@H](O)[C@@H](O)[C@H](O)[C@@H](CO)N2C1=O [Kifunensine]	109
CC(C)(CCCCCCCCCCC(C)(C)CC(=O)O)CC(=O)O [MEDICA 16]	119
CC(C)c1ccc2c(c1)c(SC(C)(C)C)c(CC(C)(C)C(=O)O)n2Cc1ccc(Cl)cc1 [MK-886]	82.7
O=C(CCl)N(CCCNC(=O)C(F)(F)F)c1ccc([N+](=O)[O-])cc1 [ML175]	-0.423
CN(C)C(=N)NC(=N)N [Metformin]	97.3
Cl.OC[C@H]1NC[C@H](O)[C@@H](O)[C@H]1O [Migalastat]	101
OCCN1C[C@H](O)[C@@H](O)[C@H](O)[C@H]1CO [Miglitol]	101
CCCCCCCNC=O [N-Heptyl-Formamide]	92.1
CC(C)(F)C[C@H](N[C@@H](c1ccc(-c2ccc(S(C)(=O)=O)cc2)cc1)C(F)(F)F)C(=O)NC1(C#N)CC1 [Odanacatib]	107
CNC(=C[N+](=O)[O-])NCCSCc1ccc(CN(C)C)o1 [Ranitidine]	92.4
C#CCN[C@@H]1CCc2ccccc21 [Rasagiline]	135
NC(CCC(=O)NC(CSCc1ccc(Br)cc1)C(=O)NCC(=O)OC1CCCC1)C(=O)OC1CCCC1 (stereo not given) [S-para-Bromobenzylglutathione cyclopentyl diester]	77
COc1cc(C2Oc3cc(C4Oc5cc(O)cc(O)c5C(=O)C4O)ccc3OC2CO)ccc1O (stereo not given) [Silibinin]	103
Cn1c2cc(S(C)=O)sc2c2cnn(Cc3cccc(N)c3)c(=O)c21 (stereo not given) [TEPP-46]	84
CCCCCCCCCCCCCCOc1ccc(C(=O)O)o1 [TOFA]	83.8
CN1CC(=O)N2[C@H](c3ccc4c(c3)OCO4)c3[nH]c4ccccc4c3C[C@@H]2C1=O [Tadalafil]	94.7
Cl.NC1=CCCN1Cc1nc(O)nc(O)c1Cl [Tipiracil]	103
CCCC(CCC)C(=O)O [Valproic acid]	106
OCC(CO)N[C@H]1C[C@](O)(CO)[C@@H](O)[C@H](O)[C@H]1O [Voglibose]	118
